# Test: Body weight and food intake in meal-fed rats, oral administration, 17 day study (Example 21)
# Format: in vivo, Charles River female rats
# Conditions: 17 days
# Procedure: Two month old Charles River female rats (Charles River Breeding Laboratories, Wilmington, Mass.) were individually housed in wire-bottomedcages in a temperature-regulated (22° C.) light-controlled room (12 hr light, 6 a.m. to 6 p.m. and 12 hr dark, 6 p.m. to 6 a.m.). […] On the 8th day, the animals were administered water or (-)-threo-chlorocitric acid at the indicated concentration by oral intubation 30 min before the 3 hr meal. Treatment was continued for 17 days. Food cups were weighed immediately after the meal. The amount of body weight gained and food consumed during the period was determined.
# [1] = G-70, 0.25 mmoles (57 mg)/kg oral
# [2] = G-70, 0.50 mmoles (114 mg)/kg oral
# [3] = G-70, 1.00 mmoles (227 mg)/kg oral
smiles,measurement,setting,value
"O=C(O)C[C@@](O)(C(=O)O)[C@@H](Cl)C(=O)O [(-)-threo-Chlorocitric acid, (-)-threo-chlorocitric acid]",CBWG (cumulative body weight gain),[1],12 ± 4 g
same,CFC (cumulative food consumption),[1],209 ± 10 g
same,FBW (final body weight),[1],211 ± 7 g
same,CBWG (cumulative body weight gain),[2],-6 ± 6 g
same,CFC (cumulative food consumption),[2],176 ± 9 g
same,FBW (final body weight),[2],188 ± 7 g
same,CBWG (cumulative body weight gain),[3],-29 ± 6 g
same,CFC (cumulative food consumption),[3],153 ± 4 g
same,FBW (final body weight),[3],169 ± 6 g

# — US4443619A, “Chlorocitric acids” (Hoffmann-La Roche Inc., priority 1981, dated 1984)
